Consider two compounds from paper PMC9742833.

Where a name gives a salt, the structure may show the parent alone.

The test system of series [1] is T1, CYP2C8.
T1 construct: purchased Life Technologies
Kind of series: Time-dependent inhibition (IC50 shift, NADPH pre-incubation). Type of series: biochemical, human. The note with it: CYP2C8 (stated for all 8 CYPs). The method, then: (§1) The procedure followed was similar to that used for screening of CYP reversible inhibition as mentioned above but with slight modifications. The master premix was added with NADP^+ to produce NADPH before the pre-incubation. The mixture was incubated for 30 min with shaking under similar range of concentrations of cathinone as mentioned above for IC50 determination. […] The IC50 shift was derived by calculating ratios of IC50 obtained from pre-incubation with and without NADPH. An IC50 shift ratio of more than 2 signifies irreversible time-dependent inhibition.

Series [2] relates to CYP2C9. Particulars: human CYP2C9, in vitro; cited from earlier work.
Series [3] deals with CYP2D6. Particulars: human CYP2D6, in vitro; cited from earlier work.
For series [4], the system named is CYP3A4. Particulars: human CYP3A4, in vitro; cited from earlier work.
The conditions of series [5]: cited from earlier work.
The conditions of series [6]: cited from earlier work. The source holds these as a separate data set.
For series [7] the following is noted: from 36.1 to 59.2 g of khat chewed, mean ± SD; cited from earlier work.
Series [8] concerns the target T2, CYP1A2 (Homo sapiens, UniProt P05177).
T2 sequence (P05177 2-516 limits assumed): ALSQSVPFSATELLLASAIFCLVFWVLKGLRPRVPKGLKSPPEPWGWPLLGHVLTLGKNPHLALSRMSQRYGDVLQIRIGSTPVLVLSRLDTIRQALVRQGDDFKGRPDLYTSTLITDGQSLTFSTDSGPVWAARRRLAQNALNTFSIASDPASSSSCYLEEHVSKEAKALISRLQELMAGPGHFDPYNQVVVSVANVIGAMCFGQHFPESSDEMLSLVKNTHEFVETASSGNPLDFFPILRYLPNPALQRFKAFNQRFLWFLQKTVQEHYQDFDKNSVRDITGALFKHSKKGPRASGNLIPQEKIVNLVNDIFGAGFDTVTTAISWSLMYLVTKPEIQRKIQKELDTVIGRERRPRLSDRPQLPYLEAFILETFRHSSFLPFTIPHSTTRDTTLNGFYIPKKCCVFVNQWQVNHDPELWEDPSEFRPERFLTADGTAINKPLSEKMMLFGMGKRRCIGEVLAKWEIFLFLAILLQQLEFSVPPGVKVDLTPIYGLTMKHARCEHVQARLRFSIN
Description: Time-dependent inhibition (IC50 shift, NADPH pre-incubation). Type of series: biochemical. Further details: purchased Life Technologies. The method, then:
as §1

For series [9], the target named is T3, CYP2A6 (Homo sapiens, UniProt P11509).
T3 sequence (P11509 1-494): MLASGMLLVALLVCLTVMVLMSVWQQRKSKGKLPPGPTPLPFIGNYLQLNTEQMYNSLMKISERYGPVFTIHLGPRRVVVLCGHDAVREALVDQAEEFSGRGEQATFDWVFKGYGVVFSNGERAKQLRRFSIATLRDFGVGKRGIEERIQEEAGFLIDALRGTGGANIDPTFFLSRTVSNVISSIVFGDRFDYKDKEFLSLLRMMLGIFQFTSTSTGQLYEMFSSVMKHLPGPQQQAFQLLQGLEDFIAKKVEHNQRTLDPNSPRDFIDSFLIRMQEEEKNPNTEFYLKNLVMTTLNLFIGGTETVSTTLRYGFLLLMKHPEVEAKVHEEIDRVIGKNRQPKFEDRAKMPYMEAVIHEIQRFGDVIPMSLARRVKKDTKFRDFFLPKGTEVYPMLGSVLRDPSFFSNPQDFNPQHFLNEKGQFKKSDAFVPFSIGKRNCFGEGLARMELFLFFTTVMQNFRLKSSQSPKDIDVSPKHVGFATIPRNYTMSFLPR
Described as above. Type of series: biochemical. Further details: purchased Life Technologies. The protocol: as §1

Series [10] addresses T4, CYP2B6 (Homo sapiens, UniProt P20813).
T4 sequence (P20813 1-491): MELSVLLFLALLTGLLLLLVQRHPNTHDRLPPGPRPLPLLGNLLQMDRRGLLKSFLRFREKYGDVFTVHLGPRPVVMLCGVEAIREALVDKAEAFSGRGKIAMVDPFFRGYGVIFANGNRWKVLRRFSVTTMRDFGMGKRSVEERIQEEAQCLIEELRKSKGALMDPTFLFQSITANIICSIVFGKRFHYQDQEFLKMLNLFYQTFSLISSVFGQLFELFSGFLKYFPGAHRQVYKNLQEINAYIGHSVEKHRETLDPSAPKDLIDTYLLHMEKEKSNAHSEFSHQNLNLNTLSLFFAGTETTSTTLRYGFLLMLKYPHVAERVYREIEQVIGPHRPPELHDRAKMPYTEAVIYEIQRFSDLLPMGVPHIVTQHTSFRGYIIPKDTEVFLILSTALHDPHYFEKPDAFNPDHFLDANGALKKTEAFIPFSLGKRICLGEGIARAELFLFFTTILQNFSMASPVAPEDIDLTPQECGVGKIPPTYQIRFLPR
Described as above. Type of series: biochemical. Further details: purchased Life Technologies. The protocol: as §1

Series [11] has as its target T5, CYP2C19 (Homo sapiens, UniProt P33261). Described as above. Type of series: biochemical. Further details: purchased Life Technologies. The protocol: as §1
Series [12] has as its target T6, CYP2E1 (Homo sapiens, UniProt P05181). The series is described as above. Type of series: biochemical. Further details: purchased Life Technologies. The protocol:
as §1

The target of series [13] is T7, CYP2J2 (Homo sapiens, UniProt P51589).
T7 sequence (P51589 1-502): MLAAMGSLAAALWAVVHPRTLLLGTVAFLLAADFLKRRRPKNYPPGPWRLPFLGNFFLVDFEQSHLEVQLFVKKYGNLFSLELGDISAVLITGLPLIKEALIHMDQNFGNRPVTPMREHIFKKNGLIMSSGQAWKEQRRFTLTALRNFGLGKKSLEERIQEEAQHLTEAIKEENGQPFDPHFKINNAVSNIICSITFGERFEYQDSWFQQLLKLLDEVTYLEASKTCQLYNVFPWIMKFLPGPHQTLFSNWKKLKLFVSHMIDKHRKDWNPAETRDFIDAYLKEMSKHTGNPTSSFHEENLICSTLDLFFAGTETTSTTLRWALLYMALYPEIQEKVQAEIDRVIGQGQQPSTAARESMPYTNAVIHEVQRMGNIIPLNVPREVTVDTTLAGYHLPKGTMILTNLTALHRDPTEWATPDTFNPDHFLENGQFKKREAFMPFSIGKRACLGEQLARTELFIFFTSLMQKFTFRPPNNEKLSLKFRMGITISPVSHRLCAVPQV
The description is as above. Type of series: biochemical. Further details: purchased Life Technologies. The protocol: as §1

Series [14] deals with T8, CYP3A5 (Homo sapiens, UniProt P20815). The series is described as above. Type of series: biochemical. Details: purchased Life Technologies. The protocol: as §1
For series [15], the target named is T2, CYP1A2. Description: Vivid CYP450 fluorescence assay, reversible inhibition.
Series [16] addresses T3, CYP2A6. The description is as above.
Series [17] concerns the target T4, CYP2B6. The series is described as above.
The subject of series [18] is CYP2C8. The description is as above. Particulars: CYP2C8, substrate DBOMF, cathinone 0 to 1000 µM.
The target in series [19] is T5, CYP2C19. The series is described as above.
For series [20], the target named is T6, CYP2E1. Described as above.
Series [21] has as its target T7, CYP2J2. The description is as above.
In series [22] the target is T8, CYP3A5. The series is described as above.

T8 sequence (P20815 whole entry): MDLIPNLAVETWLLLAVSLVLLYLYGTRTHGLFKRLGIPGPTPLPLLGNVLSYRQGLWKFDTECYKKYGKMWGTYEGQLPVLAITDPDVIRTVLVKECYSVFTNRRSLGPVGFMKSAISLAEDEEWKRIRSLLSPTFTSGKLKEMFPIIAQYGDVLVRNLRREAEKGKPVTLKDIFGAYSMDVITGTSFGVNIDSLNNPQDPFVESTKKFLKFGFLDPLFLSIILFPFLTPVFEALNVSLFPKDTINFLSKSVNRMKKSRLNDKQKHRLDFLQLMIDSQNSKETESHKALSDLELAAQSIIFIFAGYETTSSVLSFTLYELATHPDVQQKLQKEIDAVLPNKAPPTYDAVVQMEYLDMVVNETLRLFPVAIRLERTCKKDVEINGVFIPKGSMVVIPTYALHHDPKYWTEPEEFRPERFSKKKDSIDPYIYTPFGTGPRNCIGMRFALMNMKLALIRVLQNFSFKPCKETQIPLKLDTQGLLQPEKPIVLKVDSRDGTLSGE
T6 sequence (P05181 whole entry): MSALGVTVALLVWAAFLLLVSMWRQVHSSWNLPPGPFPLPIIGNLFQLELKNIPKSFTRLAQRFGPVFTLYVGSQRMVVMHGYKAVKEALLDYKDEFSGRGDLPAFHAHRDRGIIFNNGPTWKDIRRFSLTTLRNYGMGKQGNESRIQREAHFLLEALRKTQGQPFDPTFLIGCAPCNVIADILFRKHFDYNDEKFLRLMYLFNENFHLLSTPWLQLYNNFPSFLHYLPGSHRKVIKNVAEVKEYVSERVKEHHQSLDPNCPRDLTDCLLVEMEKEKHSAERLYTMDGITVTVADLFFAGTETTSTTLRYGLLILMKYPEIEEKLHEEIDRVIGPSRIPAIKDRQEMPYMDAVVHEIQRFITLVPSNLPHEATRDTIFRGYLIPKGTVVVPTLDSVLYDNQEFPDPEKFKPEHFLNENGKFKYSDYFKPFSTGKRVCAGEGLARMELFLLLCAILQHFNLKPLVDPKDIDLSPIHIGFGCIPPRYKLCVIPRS
T5 sequence (P33261 whole entry): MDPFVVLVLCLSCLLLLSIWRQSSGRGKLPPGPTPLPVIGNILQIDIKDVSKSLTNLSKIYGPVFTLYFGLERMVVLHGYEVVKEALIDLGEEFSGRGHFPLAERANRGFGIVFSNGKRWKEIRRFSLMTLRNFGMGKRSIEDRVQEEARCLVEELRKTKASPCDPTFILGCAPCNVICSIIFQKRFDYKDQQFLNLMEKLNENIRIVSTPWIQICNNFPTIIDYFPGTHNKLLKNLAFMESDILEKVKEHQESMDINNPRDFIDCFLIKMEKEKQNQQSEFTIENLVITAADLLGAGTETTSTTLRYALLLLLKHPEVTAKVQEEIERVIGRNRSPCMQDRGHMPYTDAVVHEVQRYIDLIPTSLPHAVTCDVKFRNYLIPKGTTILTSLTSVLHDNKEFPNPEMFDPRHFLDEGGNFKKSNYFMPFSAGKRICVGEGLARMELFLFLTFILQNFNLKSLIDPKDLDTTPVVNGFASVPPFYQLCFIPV

For the compound `C[C@H](N)C(=O)c1ccccc1` [Cathinone, (S)− 2-Amino-1-phenyl-1-propanone.hydrochloride], the “time dependent inhibition (TDI) potency” value in series [1] was “no significant TDI potency”. The inhibitory effects entry in series [2], in [3] and in series [4] was “negligible inhibitory effects” in each case. Further, in [5], the “area under the plasma concentration – time curve (AUC) from 0 to 9 h” value was 415 ± 207 ng/ml per hour. The “time of maximal plasma concentration” value in series [5] is 127 ± 30 min. Moreover, the maximal plasma concentration in series [5] (khat leaves equivalent to 0.8 mg cathinone/kg body weight) is 127 ± 53 ng/mL. The terminal elimination half-life in series [5] (plasma) was 4.33 ± 1.7 h. In addition, the plasma level entry in [6] (at 0.5 and 7.5 h after the start of khat chewing) is recorded as “approximately 20 ng/ml”. Besides, the “maximum plasma levels (mean)” value in [6] (khat chewing) is 83 ng/mL. Besides, in series [7], the “Cmax (maximal plasma concentration)” value is 58.9 ± 18.8 ng/mL. For the same compound, the absorbed in series [7] was 59 ± 21%. Besides, the half-maximal inhibitory concentration (IC50) (in general, the concentration at which inhibition is half-maximal) in series [8] was determined as 75.4 µM; in [9] it was 13.7 µM; in series [10], 110 µM; in series [11], 220 µM; in series [12] it was 71.3 µM; in [13], 194 µM. Besides, the IC50 is 11.1 µM in [14]; 17 µM in series [15]; 11.5 µM in [16]; 165 µM in series [17]; 118 µM in [19]; 568 µM in series [20]. Further, the values for the concentration for half-maximal inhibition (IC50) in series [21] and in series [22] were 163 µM and 19.9 µM, respectively. Moreover, the IC50 shift at 60 min in series [9] (human, pH 8, probe Vivid CC (3-cyanocoumarin), CYP2A6, shift > 2 = significant TDI) was 0.84. Besides, the values for the Ki in series [15], in [16] and in series [22] were 57.1 µM, 13.8 µM and 23.6 µM, respectively. Besides, the mode of inhibition entry was “competitive” in [15] (CYP1A2), “un-competitive” in series [16] (CYP2A6) and “noncompetitive” in [22] (CYP3A5). In series [18], the “inhibition of CYP2C8” value is “no significant inhibition”.
Regarding `C[C@H](N)[C@@H](O)c1ccccc1` [cathine, S,S-(+)-norpseudoephedrine], in series [7], the “Cmax (maximal plasma concentration)” value is 71.2 ± 13.9 ng/mL and the absorbed is listed as 84 ± 6%.
